The target of one test is T1, mouse TGR5 receptor (Mus musculus, UniProt Q80SS6).
T1 construct: expressed in transfected cells; host or cells: HEK293-EBNA (293 c18, ATCC CRL10852), Hygromycin B selection
T1 sequence (Q80SS6 1-329): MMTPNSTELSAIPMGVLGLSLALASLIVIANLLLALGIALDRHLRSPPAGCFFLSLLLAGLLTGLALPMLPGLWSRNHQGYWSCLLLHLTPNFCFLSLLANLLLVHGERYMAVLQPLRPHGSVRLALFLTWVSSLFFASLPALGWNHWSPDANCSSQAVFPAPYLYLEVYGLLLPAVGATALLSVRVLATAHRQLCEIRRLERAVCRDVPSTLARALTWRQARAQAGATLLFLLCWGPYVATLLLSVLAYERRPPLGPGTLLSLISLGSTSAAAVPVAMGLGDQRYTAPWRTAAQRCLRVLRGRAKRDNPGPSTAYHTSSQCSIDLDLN
Description: Mouse TGR5 cAMP production assay (HTRF, Cisbio cAMP HiRange). As to conditions: HEK293-EBNA cells overexpressing mouse TGR5, HTRF cAMP HiRange; coded A-D. It is filed as cell-based. In a few lines:
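cAMP read by HTRF competition after 1 h room-temperature compound exposure of mouse TGR5-overexpressing HEK293-EBNA cells. Cells were suspended in serum-free DMEM containing 500 μM IBMX; compounds ran as 12-point half-log dilutions in duplicate; EC50 derived.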
A general note: Cyclic AMP is a second messenger, typically raised through Gs and lowered through Gi signalling.

A further test addresses T2, human TGR5 receptor (Homo sapiens, UniProt Q8TDU6).
T2 construct: host or cells: CHO-K1 (hTGR5-CHO cells)
T2 sequence (Q8TDU6 1-330): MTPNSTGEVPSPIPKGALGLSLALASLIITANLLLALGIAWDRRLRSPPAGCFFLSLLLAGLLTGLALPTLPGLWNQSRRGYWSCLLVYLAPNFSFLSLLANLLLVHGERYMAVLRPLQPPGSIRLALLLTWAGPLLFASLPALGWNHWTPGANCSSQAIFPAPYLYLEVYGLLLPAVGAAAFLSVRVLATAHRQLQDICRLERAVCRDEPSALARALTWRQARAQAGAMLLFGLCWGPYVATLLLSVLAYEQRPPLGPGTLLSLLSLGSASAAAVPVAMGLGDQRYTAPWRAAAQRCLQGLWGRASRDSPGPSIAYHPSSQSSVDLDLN
In words: Human TGR5 cAMP production assay. It is filed as cell-based. As to conditions: human TGR5, luminescent cAMP assay; coded A-D; read-out: Human TGR5 Lum. cAMP Activity (EC50). In a few lines: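 CHO-K1 cells stably expressing human TGR5, with IBMX and cAMP antibody, were exposed to half-log serially diluted compound for 1 h at room temperature. cAMP measured by enzyme-fragment complementation luminescence (XS+ kit) after overnight incubation; EC50 values reported.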

By EC50 is commonly meant the concentration needed to bring the measured effect to its halfway point.

For `CC(=O)N(CCCCN([C@@H](C)c1cccc(-c2ccncc2C)c1)S(=O)(=O)c1cccc(Cl)c1C)CCC(=O)O` [Compound 34, (S)-3-(N-(4-(3-chloro-2-methyl-N-(1-(3-(3-methylpyridin-4-yl)phenyl)ethyl)phenylsulfonamido)butyl)acetamido)propanoic acid], the EC50 at mouse TGR5 receptor and on human TGR5 receptor was 100 to 999 nM in each case.
On to `Cc1c(Cl)cccc1S(=O)(=O)N[C@@H](C)c1cccc(-c2ccnn2C)c1` [Compound 4, (S)-3-Chloro-2-methyl-N-(1-(3-(1-methyl-1H-pyrazol-5-yl)phenyl)ethyl)benzenesulfonamide], for which the EC50 was in the range of 1000 to 30000 nM at mouse TGR5 receptor and 100 to 999 nM at human TGR5 receptor.
As for `Cc1c(Cl)cccc1S(=O)(=O)N1CCN(C(=O)CCC(=O)O)CC1c1cccc(-c2ccncc2)c1` (stereo not drawn) [Compound 46AF, 4-(4-((3-chloro-2-methylphenyl)sulfonyl)-3-(3-(pyridin-4-yl)phenyl)piperazin-1-yl)-4-oxobutanoic acid], the 50% effective concentration (EC50) at mouse TGR5 receptor and at human TGR5 receptor was 1000 to 30000 nM in each case.
In the case of `CCc1cnccc1-c1cccc([C@H](C)N(CCCCC(=O)O)S(=O)(=O)c2cccc(Cl)c2C)c1` [Compound 16AG, (S)-5-(3-chloro-N-(1-(3-(3-ethylpyridin-4-yl)phenyl)-ethyl)-2-methylphenyl-sulfonamido)pentanoic acid], the half-maximal effective concentration (EC50) on mouse TGR5 receptor and at human TGR5 receptor was less than 100 nM each time.
For `Cc1cnccc1-c1cccc(C(C)(C)NS(=O)(=O)c2cccc(Cl)c2Cl)c1` [Compound 2BV], the 50% effective concentration (EC50) on mouse TGR5 receptor and on human TGR5 receptor was less than 100 nM in each case.
On to `COc1cnccc1-c1cc(CNS(=O)(=O)c2cccc(C(F)(F)F)c2)ccn1` [Compound 1BS], for which the half-maximal effective concentration (EC50) on mouse TGR5 receptor and on human TGR5 receptor was 1000 to 30000 nM throughout.
For the molecule `Cc1cnccc1-c1cccc([C@H](C)N(CCCC(=O)NCCS(=O)(=O)O)S(=O)(=O)c2ccccc2C)c1` [Compound 20AQ, (S)-2-(4-(2-methyl-N-(1-(3-(3-methylpyridin-4-yl)phenyl)ethyl)phenylsulfonamido)butanamido)ethanesulfonic acid], the values for the concentration giving a half-maximal response (EC50) on mouse TGR5 receptor and at human TGR5 receptor were 100 to 999 nM and less than 100 nM, respectively.
With `Cc1cnccc1-c1cccc(C(C)(C)N(CCCNS(=O)(=O)CCNC(=O)NCCCS(=O)(=O)O)S(=O)(=O)c2cccc(Cl)c2C)c1` [Compound 28AE, 3-(3-(2-(N-(3-((3-chloro-2-methyl-N-(2-(3-(3-methylpyridin-4-yl)phenyl)-propan-2-yl)phenyl)sulfonamido)-propyl)sulfamoyl)ethyl)ureido)propane-1-sulfonic acid], the EC50 on mouse TGR5 receptor is 100 to 999 nM; on human TGR5 receptor it was less than 100 nM.
On the same counts, the results for `Cc1cnccc1-c1cccc(C(C)(C)N(CCCNS(=O)(=O)CCNC(=O)NCCS(=O)(=O)O)S(=O)(=O)c2cccc(Cl)c2C)c1` [Compound 28AD, 2-(3-(2-(N-(3-((3-chloro-2-methyl-N-(2-(3-(3-methylpyridin-4-yl)phenyl)propan-2-yl)phenyl)sulfonamido)propyl)sulfamoyl)ethyl)ureido)ethane-1-sulfonic acid] are less than 100 nM and less than 100 nM.
On the same counts, the results for `CCc1cnccc1-c1cccc(C2CN(C(=O)CN(C)CC(=O)O)CCN2S(=O)(=O)c2cccc(Cl)c2C)c1` (stereo not drawn) [Compound 46AC, 2-((2-(4-((3-chloro-2-methylphenyl)sulfonyl)-3-(3-(3-ethylpyridin-4-yl)phenyl)piperazin-1-yl)-2-oxoethyl)(methyl)amino)acetic acid] are less than 100 nM and less than 100 nM.
For `Cc1cnccc1-c1cccc(C(C)(C)N(CCCNC(=O)NCCCS(=O)(=O)O)S(=O)(=O)c2cccc(Cl)c2C)c1` [Compound 29AC] the same measures were less than 100 nM and less than 100 nM.
On to `Cc1cnccc1-c1cccc(C2CCCN2S(=O)(=O)c2ccccc2C(F)(F)F)c1` (racemic) [Compound 41, (+/−) 3-Methyl-4-(3-(1-((2-(trifluoromethyl)phenyl)sulfonyl)pyrrolidin-2-yl)phenyl)pyridine], for which the EC50 on mouse TGR5 receptor is 100 to 999 nM; at human TGR5 receptor, less than 100 nM.
For the molecule `Cc1c(Cl)cccc1S(=O)(=O)N[C@@H](C)c1cccc(-c2ccnnc2)c1` [Compound 1BP], the EC50 at mouse TGR5 receptor was in the range of 1000 to 30000 nM; on human TGR5 receptor it was 100 to 999 nM.
On the same counts, the results for `COC(=O)CS(=O)(=O)NCCOCCNC(=O)CCCCN([C@@H](C)c1cccc(-c2ccncc2C)c1)S(=O)(=O)c1cccc(Cl)c1C` [Compound 26AC] are 100 to 999 nM and less than 100 nM.
As to `Cc1cnccc1-c1cccc([C@@H](C)NS(=O)(=O)c2ccccc2C(F)(F)F)c1` [Compound 5AT, (R)-N-(1-(3-(3-methylpyridin-4-yl)phenyl)ethyl)-2-(trifluoromethyl)benzenesulfonamide], the EC50 is 100 to 999 nM on mouse TGR5 receptor and less than 100 nM at human TGR5 receptor.
Take `COc1cccc(S(=O)(=O)N2CCN(C(=O)CCC(=O)O)CC2c2cccc(-c3ccncc3C)c2)c1` (stereo not drawn) [Compound 46AJ, 4-(4-((3-methoxyphenyl)sulfonyl)-3-(3-(3-methylpyridin-4-yl)phenyl)piperazin-1-yl)-4-oxobutanoic acid]: the EC50 was 100 to 999 nM on mouse TGR5 receptor and 1000 to 30000 nM on human TGR5 receptor.
For the molecule `Cc1cnccc1-c1cccc([C@H](C)N(CCCC(=O)O)S(=O)(=O)c2ccccc2C(F)(F)F)c1` [Compound 15, (S)-4-(N-(1-(3-(3-methylpyridin-4-yl)phenyl)ethyl)-2-(trifluoromethyl)phenylsulfonamido)-butanoic acid], the 50% effective concentration (EC50) was 100 to 999 nM on mouse TGR5 receptor and less than 100 nM at human TGR5 receptor.
For the molecule `CCc1cnccc1-c1cccc(C2CN(C(=O)CP(=O)(O)O)CCN2S(=O)(=O)c2cccc(Cl)c2C)c1` (stereo not drawn) [Compound 50], the EC50 at mouse TGR5 receptor was less than 100 nM; on human TGR5 receptor, 100 to 999 nM.
Consider `Cc1cnccc1-c1cccc([C@H](C)NS(=O)(=O)c2cccc(Cl)c2C)c1` [Compound 7], for which the EC50 on mouse TGR5 receptor and on human TGR5 receptor was less than 100 nM each time.
With `Cc1cnccc1-c1cccc(C(C)(C)N(CCCNS(=O)(=O)CCN)S(=O)(=O)c2cccc(Cl)c2C)c1` [Compound 26, N-(3-((2-aminoethyl)sulfonamido)propyl)-3-chloro-2-methyl-N-(2-(3-(3-methylpyridin-4-yl)phenyl)propan-2-yl)benzenesulfonamide], the concentration for a half-maximal effect (EC50) was 100 to 999 nM on mouse TGR5 receptor and less than 100 nM at human TGR5 receptor.
`Cc1cnccc1-c1cccc(C(CCCCN)NS(=O)(=O)c2ccccc2C(F)(F)F)c1` (stereo not drawn) [Compound 24AA, N-(5-amino-1-(3-(3-methylpyridin-4-yl)phenyl)pentyl)-2-(trifluoromethyl)benzenesulfonamide]: the concentration for a half-maximal effect (EC50) was in the range of 100 to 999 nM at mouse TGR5 receptor and 1000 to 30000 nM on human TGR5 receptor.
Take `Cc1cnccc1-c1cccc([C@H](CC(=O)O)NS(=O)(=O)c2ccccc2C(F)(F)F)c1` [Compound 18, (S)-3-(3-(3-methylpyridin-4-yl)phenyl)-3-(2-(trifluoromethyl)phenylsulfonamido)propanoic acid]: the concentration for a half-maximal effect (EC50) lay in the range of 100 to 999 nM at mouse TGR5 receptor and 1000 to 30000 nM on human TGR5 receptor.
Turning to `COc1cnccc1-c1cccc(C(C)(C)NS(=O)(=O)c2cc(Cl)ccc2Cl)c1` [Compound 2BE], the figures for the half-maximal effective concentration (EC50) on mouse TGR5 receptor and on human TGR5 receptor were 100 to 999 nM and less than 100 nM, respectively.
Turning to `Cc1cnccc1-c1cccc([C@H](C)N(CCCC(=O)NCCS(=O)(=O)NCCC(=O)O)S(=O)(=O)c2ccccc2C(F)(F)F)c1` [Compound 20BI], the EC50 on mouse TGR5 receptor and at human TGR5 receptor was less than 100 nM in each case.
Turning to `Cc1cnccc1-c1cccc(C(CCC#N)NS(=O)(=O)c2ccccc2C(F)(F)F)c1` (stereo not drawn) [Compound 6AD, N-(3-cyano-1-(3-(3-methylpyridin-4-yl)phenyl)-propyl)-2-(trifluoromethyl)benzenesulfonamide], the values for the concentration giving a half-maximal response (EC50) on mouse TGR5 receptor and on human TGR5 receptor were 100 to 999 nM and less than 100 nM, respectively.
For the molecule `Cc1cnccc1-c1cccc([C@H](CCCC#N)N(CCCC(=O)OC(C)(C)C)S(=O)(=O)c2cccc(Cl)c2C)c1` [Compound 15AC, (S)-tert-butyl 4-(3-chloro-N-(4-cyano-1-(3-(3-methylpyridin-4-yl)phenyl)butyl)-2-methylphenylsulfonamido) butanoate], the half-maximal effective concentration (EC50) lay within 1000 to 30000 nM at mouse TGR5 receptor and 100 to 999 nM at human TGR5 receptor.
Turning to `CC(=O)N1CCN(S(=O)(=O)c2ccccc2C(F)(F)F)C(c2cccc(-c3ccncc3C)c2)C1` (stereo not drawn) [Compound 45, 1-(3-(3-(3-methylpyridin-4-yl)phenyl)-4-((2-(trifluoromethyl)phenyl)sulfonyl)piperazin-1-yl)ethanone], the EC50 at mouse TGR5 receptor was less than 100 nM; at human TGR5 receptor it was 100 to 999 nM.

(Values after US11236055B2 (Venenum Biodesign, LLC, priority 2016, dated 2022).)
